In US9301923B2, “Lipids, lipid compositions, and methods of using them” (NOVARTIS AG, priority 2009, dated 2016):
Values joined by “and” are separate entries in the source; they are usually repeats but may differ in a detail not shown here. Equal values may be shown once. Read-outs that look alike come from different tables or passages of the source.

Assays:
[1] = Particle size and PDI by dynamic light scattering (Malvern Zetasizer); assay type: physicochemical; design: Final size: unit not given here; conditions: for Final size: LNP formulation, Table 10
In short: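 Nanoparticles diluted in PBS to a count rate of about 200-400 kcts and measured by dynamic light scattering; size given as intensity-weighted average diameter, with polydispersity index from the same measurement.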

Factor VII = Factor VII activity assay, in vivo liver delivery of FVII siRNA LNP; design: species or system mouse; conditions: for FVII inhib %: ~48 h
In short: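 Female CD-1 mice (~25 g) given a single i.v. tail-vein dose of FVII siRNA in LNPs (cationic, stealth, neutral lipids), dosed as mg siRNA/kg. Plasma collected ~48 h post-injection; FVII activity read against a standard curve from pooled vehicle-control plasma.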

[2] = test system: PLK-1 mRNA in Hep3B tumors; experiment: Hep3B tumor study, PLK-1 mRNA KD in tumor tissue; assay type: in vivo, human; conditions: for PLK1 inhibition %: Hep3B tumor, mouse, i.v., LNP composition as in the source; for % KD: formulation containing E0011 and S004
Text: Formulated siRNAs are made up of double stranded siRNA sequences specific to a target mRNA sequence, and are in the form of lipid nucleotid particles (LNPs) containing cationic lipids, stealth lipids and neutral lipids, as provided in the Examples below. The siRNA construct for use in targeting the liver is specific to Factor VII. The siRNA construct for use in targeting tumors is specific to PLK1-424, which is published by Judge et al., See, J Clin Invest. 2009 March; 119(3):661-73; doi: 10.1172/JCI37515). • 1. FVII siRNA duplex sequence
Hep3B tumors are established in female nude mice by sc injection of 7×10^6 cells in 100 ul PBS into the left flank. Mice are randomized into treatment groups 10-14 days after seeding as tumors reached an average size of 100 mm^3. siRNA formulated LNP formulations are administered at various dose levels intravenously via the lateral tail vein calculated on a mg siRNAs/kg basis according to individual animal weights (10 ml/kg injection volume). Mice are euthanized by CO2 inhalation at various time points and the tumors are harvested for mRNA quantitation. Lipids with a wide range of pKa (5.3-6.6) are used in the LNP formulations. Tumors are measured in 2 dimensions (width×length) to assess tumor growth using digital calipers. Tumor volume is calculated using the equation [a×b×b/2], where a equals the largest diameter and b equals the smallest diameter.
About 30-50 mg tumor tissue is homogenized in tissue lysis buffer in a Qiagen homogenizer followed by centrifugation to clarify lysates. Total RNA is isolated using RNeasy isolation kit (catalog number 74106) according to the manufacture's protocol. PLK-1 mRNA is analyzed by quantitative PCR and normalized to human GAPDH. Applied Biosystems human PLK-1 gene expression assay Hs00983229_m1 and human GAPDH endogenous control cat number 4326317E are used for mRNA detection.
The pKa in all tables refers to the pKa of the cationic lipid. Where multiple doses are indicated (e.g., 3×5), the first number indicates the number of doses given and the second number indicates the amount per dose in mg siRNA (biologically active agent) per kg mouse. In general the multiple doses are administered at 24 hour intervals, and tissues for mRNA quantitation are harvested 24 hours after the last dose.

[3] = pKa of the lipid by TNS fluorescence; assay type: physicochemical
In short: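 Lipid dissolved in ethanol (2 mM stock) and measured with TNS across eight buffers of differing pH, in water at standard temperature and pressure. Normalized fluorescence intensity plotted against pH and points joined by a smooth line to derive pKa, precise to about 0.2 units.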

[4] = lipid/DSPC/CHOL/AVANTI 880150P 50/28/18/4, N/P 3.43
[5] = lipid/no neutral lipid/CHOL/AVANTI 880150P 50/0/46/4, N/P 3.43
[6] = dose 3 mg/kg siRNA i.v., lipid/DSPC/CHOL/AVANTI 880150P 50/28/18/4, N/P 3.43
[7] = dose 3 mg/kg siRNA i.v., lipid/no neutral lipid/CHOL/AVANTI 880150P 50/0/46/4, N/P 3.43
[8] = LNP formulation with PLK1 siRNA, helper, neutral and stealth lipid, molar ratio and N/P as in the table
[9] = lipid/no neutral lipid/CHOL/GM-020 NOF 60/0/34/6, N/P 3
[10] = lipid/no neutral lipid/CHOL/GM-020 NOF 60/0/36/4, N/P 3
[11] = lipid/no neutral lipid/CHOL/GM-020 NOF 60/0/38/2, N/P 3

Row | SMILES | Final size (nm) [1, 5] | PDI [1, 5] | FVII inhib % (Factor VII; [7]) | PLK1 inhibition % ([2]; 1 × 1 mg siRNA/kg) | pKa ([3]; pKa) | Final size (nm) [1, 8] | also measured
1 | CCCCC/C=C\C/C=C\CCCCCCCCOCC(CN1CCC(C)CC1)OCCOCCO[C@H]1CC[C@@]2(C)C(=CC[C@H]3[C@@H]4CC[C@H]([C@H](C)CCCC(C)C)[C@@]4(C)CC[C@@H]32)C1 (stereo partly shown) [E0008] | 84 nm | 0.214 | 84.5% | 38% | 5.81 |  | Final size (nm) ([1]; LNP formulation with PLK1 siRNA, helper, neutral and stealth lipid, molar ratio and N/P as in the table, stealth lipid S004, molar ratio 60/38/2, N/P 4): 123.1 nm; Final size (nm) ([1]; LNP formulation with PLK1 siRNA, helper, neutral and stealth lipid, molar ratio and N/P as in the table, stealth lipid S011, molar ratio 60/38/2, N/P 4): 93.11 nm; Final size (nm) [1, 4]: 85 nm; PDI [1, 4]: 0.168; FVII inhib % (Factor VII; [6]): 73%; PLK1 inhibition % ([2]; 1 × 5 mg siRNA/kg): 85%
2 | CCCCC/C=C\C/C=C\CCCCCCCCOCC(CN1CCOCC1)OCCOCCO[C@H]1CC[C@@]2(C)C(=CC[C@H]3[C@@H]4CC[C@H]([C@H](C)CCCC(C)C)[C@@]4(C)CC[C@@H]32)C1 (stereo partly shown) [E0011] | 108 nm | 0.23 | 92.3% |  | 5.32 |  | Final size ([1]; stealth lipid S018): 113.2; Final size ([1]; stealth lipid S019): 110; Final size ([1]; stealth lipid S020): 74.42; Final size (nm) [1, 4]: 111 nm; PDI [1, 4]: 0.221; FVII inhib % (Factor VII; [6]): 86.5%; PLK1 inhibition % ([2]; 1 × 5 mg siRNA/kg): 66%; PLK1 inhibition % ([2]; 3 × 10 mg siRNA/kg): 71%; % KD ([2]; Table 9, 1×10 mg/kg siRNA): 70%; % KD ([2]; Table 9, 3×5 mg/kg siRNA): 67%
3 | CCCCC/C=C\C/C=C\CCCCCCCCOCC(CN1CCCCC1)OCCOCCO[C@H]1CC[C@@]2(C)C(=CCC3C2CC[C@@]2(C)C3CC[C@@H]2[C@H](C)CCCC(C)C)C1 (stereo partly shown) [E0014] | 148 nm | 0.05 | 97.4% |  | 6.4 | 82.21 nm | Final size (nm) [1, 4]: 104 nm and 95 nm; PDI [1, 4]: 0.151 and 0.148; Final size (nm) [1, 9]: 85.8 nm; PDI [1, 9]: 0.106; Final size (nm) [1, 10]: 101.5 nm and 94.6 nm; PDI [1, 10]: 0.182 and 0.092; Final size (nm) [1, 11]: 141 nm; PDI [1, 11]: 0.122; FVII inhib % (Factor VII; dose 1 mg/kg siRNA i.v., lipid/DSPC/CHOL/AVANTI 880150P 50/28/18/4, N/P 3.43): 72.1%; FVII inhib % (Factor VII; dose 1 mg/kg siRNA i.v., lipid/no neutral lipid/CHOL/GM-020 NOF 60/0/34/6, N/P 3): 25%; FVII inhib % (Factor VII; dose 1 mg/kg siRNA i.v., lipid/no neutral lipid/CHOL/GM-020 NOF 60/0/36/4, N/P 3, 1 mg/kg): 68.5% and 37.6%; FVII inhib % (Factor VII; dose 1 mg/kg siRNA i.v., lipid/no neutral lipid/CHOL/GM-020 NOF 60/0/38/2, N/P 3): 71.5%; FVII inhib % (Factor VII; dose 3 mg/kg siRNA i.v., lipid/DSPC/CHOL/AVANTI 880150P 50/28/18/4, N/P 3.43, 3 mg/kg): 98.6% and 95.8%; FVII inhib % (Factor VII; dose 3 mg/kg siRNA i.v., lipid/no neutral lipid/CHOL/GM-020 NOF 60/0/34/6, N/P 3): 96.6%; FVII inhib % (Factor VII; dose 3 mg/kg siRNA i.v., lipid/no neutral lipid/CHOL/GM-020 NOF 60/0/36/4, N/P 3): 94%; FVII inhib % (Factor VII; dose 3 mg/kg siRNA i.v., lipid/no neutral lipid/CHOL/GM-020 NOF 60/0/38/2, N/P 3): 96.2%; in vivo Factor VII inhibition (Factor VII; formulation containing the cationic lipid, RNAi construct specific to Factor VII, liver): 97.4%; PLK1 inhibition % ([2]; 1 × 10 mg siRNA/kg): 22%; pKa [3]: 6.4
4 | CCCCC/C=C\C/C=C\CCCCCCCCOCC(CN1CCC(C)(C)C1)OCCOCCO[C@H]1CC[C@@]2(C)C(=CC[C@H]3[C@@H]4CC[C@H]([C@H](C)CCCC(C)C)[C@@]4(C)CC[C@@H]32)C1 (stereo partly shown) [E0026] | 87 nm | 0.23 | 95.1% |  |  | 105.8 nm | PLK1 inhibition % ([2]; 1 × 5 mg siRNA/kg): 75%
5 | CCCCC/C=C\C/C=C\CCCCCCCCOCC(CN1CCOCC1)OCCCOCCCO[C@H]1CC[C@@]2(C)C(=CC[C@H]3[C@@H]4CC[C@H]([C@H](C)CCCC(C)C)[C@@]4(C)CC[C@@H]32)C1 (stereo partly shown) [E0093] |  |  |  |  | 4.85 | 82.42 nm | PLK1 inhibition % ([2]; 1 × 10 mg siRNA/kg): 2%
6 | CCCCCCCC/C=C\CCCCCCCCOCC(CN1CC[C@@H]2CCCC[C@H]2C1)OCCOCCO[C@H]1CC[C@@]2(C)C(=CC[C@H]3[C@@H]4CC[C@H]([C@H](C)CCCC(C)C)[C@@]4(C)CC[C@@H]32)C1 (stereo partly shown) [E0120] |  |  |  | 28% | 5.48 | 87 nm | 
7 | CCCCCCCC/C=C\CCCCCCCCOCC(CN1CCOCC1)OCCOC(=O)CO[C@H]1CC[C@@]2(C)C(=CCC3[C@@H]4CC[C@H]([C@H](C)CCCC(C)C)[C@@]4(C)CC[C@@H]32)C1 (stereo partly shown) [E0128] |  |  |  | 23% | 5.01 | 83.47 nm | 
8 | CCCCCCCC/C=C\CCCCCCCCOCC(CN1CCCCC1)OCCOC(=O)CCCC(=O)O[C@H]1CC[C@@]2(C)C(=CC[C@H]3[C@@H]4CC[C@H]([C@H](C)CCCC(C)C)[C@@]4(C)CC[C@@H]32)C1 (stereo partly shown) [E0151] |  |  |  | 25% | 6.06 | 103.8 nm | PLK1 inhibition % ([2]; 1 × 0.1 mg siRNA/kg): 7%
9 | CCCCCCCC/C=C\CCCCCCCCOCC(CN1CCOCC1)OCCOCCOC(=O)CCC(=O)O[C@H]1CC[C@@]2(C)C(=CC[C@H]3[C@@H]4CC[C@H]([C@H](C)CCCC(C)C)[C@@]4(C)CC[C@@H]32)C1 (stereo partly shown) [E0152] |  |  |  | 18% | 5.38 | 121.3 nm | 
10 | CCCCCCCC/C=C\CCCCCCCCOCOCC(CN1CCCCC1)OCCCOC(=O)CCC(=O)O[C@H]1CC[C@@]2(C)C(=CC[C@H]3[C@@H]4CC[C@H]([C@H](C)CCCC(C)C)[C@@]4(C)CC[C@@H]32)C1 (stereo partly shown) [E0160] |  |  |  | 38% | 6.05 | 100.8 nm | 
11 | CCCCCCCC/C=C\CCCCCCCCOCC(CN1CCOCC1)OCCOCC(=O)OC1CC[C@@]2(C)C(=CCC3C2CC[C@@]2(C)C3CC[C@@H]2[C@H](C)CCCC(C)C)C1 (stereo partly shown) [E0167] |  |  |  | 23% | 5.21 | 86.57 nm | 
12 | CCCCC/C=C\C/C=C\CCCCCCCCOCC(CN1CCCCC1)OCCCOC(=O)CCC(=O)O[C@H]1CC[C@@]2(C)C(=CC[C@H]3[C@@H]4CC[C@H]([C@H](C)CCCC(C)C)[C@@]4(C)CC[C@@H]32)C1 (stereo partly shown) [E0179] |  |  |  | 53% | 5.95 | 114.6 nm | 
